Data taken from US20220031629A1, “OPHTHALMIC COMPOSITIONS FOR REMOVING MEIBUM OR INHIBITING MEIBUM BUILDUP” (Altaire Pharmaceuticals, Inc., priority 2020, published 2022).

Tested on: normal human keratinocytes/stratified squamous epithelium (EPIOCULAR model)
Test: Ocular irritation MTT assay (EPIOCULAR model)
Assay type: cell-based
Description: Another ocular irritation study was done by exposing a microemulsion containing polyoxyl 35 castor oil in accordance with an embodiment of the present disclosure onto normal human keratinocytes/stratified squamous epithelium which is similar to that found in the cornea epithelium of the human eye (EPIOCULAR model), and then checking tissue viability with MTT assay for cytotoxicity after incubation in comparison with a water control (Cyprotex).

In the case of `COC(C)=O` [Methyl Acetate], the “Irritation Response (Irritant if ≤ 60%)” value (MTT assay) is reported as “Positive” and the “Mean Tissue Viability” value (MTT assay after incubation, in comparison with water control) is reported as 31.1%.
